Here are results for 29 compounds from patent US20240398784A1, “C-LINKED ISOQUINOLINE AMIDES AS LRRK2 INHIBITORS, PHARMACEUTICAL COMPOSITIONS, AND USES THEREOF” (Merck Sharp & Dohme LLC, priority 2021, published 2024).

For one assay, the target named is LRRK2 G2019S (Homo sapiens, UniProt Q5S007, G2019S). Description: LRRK2 G2019S Km ATP LanthaScreen assay. It counts as biochemical.
LRRK2 G2019S, sequence (Q5S007 whole entry G2019S): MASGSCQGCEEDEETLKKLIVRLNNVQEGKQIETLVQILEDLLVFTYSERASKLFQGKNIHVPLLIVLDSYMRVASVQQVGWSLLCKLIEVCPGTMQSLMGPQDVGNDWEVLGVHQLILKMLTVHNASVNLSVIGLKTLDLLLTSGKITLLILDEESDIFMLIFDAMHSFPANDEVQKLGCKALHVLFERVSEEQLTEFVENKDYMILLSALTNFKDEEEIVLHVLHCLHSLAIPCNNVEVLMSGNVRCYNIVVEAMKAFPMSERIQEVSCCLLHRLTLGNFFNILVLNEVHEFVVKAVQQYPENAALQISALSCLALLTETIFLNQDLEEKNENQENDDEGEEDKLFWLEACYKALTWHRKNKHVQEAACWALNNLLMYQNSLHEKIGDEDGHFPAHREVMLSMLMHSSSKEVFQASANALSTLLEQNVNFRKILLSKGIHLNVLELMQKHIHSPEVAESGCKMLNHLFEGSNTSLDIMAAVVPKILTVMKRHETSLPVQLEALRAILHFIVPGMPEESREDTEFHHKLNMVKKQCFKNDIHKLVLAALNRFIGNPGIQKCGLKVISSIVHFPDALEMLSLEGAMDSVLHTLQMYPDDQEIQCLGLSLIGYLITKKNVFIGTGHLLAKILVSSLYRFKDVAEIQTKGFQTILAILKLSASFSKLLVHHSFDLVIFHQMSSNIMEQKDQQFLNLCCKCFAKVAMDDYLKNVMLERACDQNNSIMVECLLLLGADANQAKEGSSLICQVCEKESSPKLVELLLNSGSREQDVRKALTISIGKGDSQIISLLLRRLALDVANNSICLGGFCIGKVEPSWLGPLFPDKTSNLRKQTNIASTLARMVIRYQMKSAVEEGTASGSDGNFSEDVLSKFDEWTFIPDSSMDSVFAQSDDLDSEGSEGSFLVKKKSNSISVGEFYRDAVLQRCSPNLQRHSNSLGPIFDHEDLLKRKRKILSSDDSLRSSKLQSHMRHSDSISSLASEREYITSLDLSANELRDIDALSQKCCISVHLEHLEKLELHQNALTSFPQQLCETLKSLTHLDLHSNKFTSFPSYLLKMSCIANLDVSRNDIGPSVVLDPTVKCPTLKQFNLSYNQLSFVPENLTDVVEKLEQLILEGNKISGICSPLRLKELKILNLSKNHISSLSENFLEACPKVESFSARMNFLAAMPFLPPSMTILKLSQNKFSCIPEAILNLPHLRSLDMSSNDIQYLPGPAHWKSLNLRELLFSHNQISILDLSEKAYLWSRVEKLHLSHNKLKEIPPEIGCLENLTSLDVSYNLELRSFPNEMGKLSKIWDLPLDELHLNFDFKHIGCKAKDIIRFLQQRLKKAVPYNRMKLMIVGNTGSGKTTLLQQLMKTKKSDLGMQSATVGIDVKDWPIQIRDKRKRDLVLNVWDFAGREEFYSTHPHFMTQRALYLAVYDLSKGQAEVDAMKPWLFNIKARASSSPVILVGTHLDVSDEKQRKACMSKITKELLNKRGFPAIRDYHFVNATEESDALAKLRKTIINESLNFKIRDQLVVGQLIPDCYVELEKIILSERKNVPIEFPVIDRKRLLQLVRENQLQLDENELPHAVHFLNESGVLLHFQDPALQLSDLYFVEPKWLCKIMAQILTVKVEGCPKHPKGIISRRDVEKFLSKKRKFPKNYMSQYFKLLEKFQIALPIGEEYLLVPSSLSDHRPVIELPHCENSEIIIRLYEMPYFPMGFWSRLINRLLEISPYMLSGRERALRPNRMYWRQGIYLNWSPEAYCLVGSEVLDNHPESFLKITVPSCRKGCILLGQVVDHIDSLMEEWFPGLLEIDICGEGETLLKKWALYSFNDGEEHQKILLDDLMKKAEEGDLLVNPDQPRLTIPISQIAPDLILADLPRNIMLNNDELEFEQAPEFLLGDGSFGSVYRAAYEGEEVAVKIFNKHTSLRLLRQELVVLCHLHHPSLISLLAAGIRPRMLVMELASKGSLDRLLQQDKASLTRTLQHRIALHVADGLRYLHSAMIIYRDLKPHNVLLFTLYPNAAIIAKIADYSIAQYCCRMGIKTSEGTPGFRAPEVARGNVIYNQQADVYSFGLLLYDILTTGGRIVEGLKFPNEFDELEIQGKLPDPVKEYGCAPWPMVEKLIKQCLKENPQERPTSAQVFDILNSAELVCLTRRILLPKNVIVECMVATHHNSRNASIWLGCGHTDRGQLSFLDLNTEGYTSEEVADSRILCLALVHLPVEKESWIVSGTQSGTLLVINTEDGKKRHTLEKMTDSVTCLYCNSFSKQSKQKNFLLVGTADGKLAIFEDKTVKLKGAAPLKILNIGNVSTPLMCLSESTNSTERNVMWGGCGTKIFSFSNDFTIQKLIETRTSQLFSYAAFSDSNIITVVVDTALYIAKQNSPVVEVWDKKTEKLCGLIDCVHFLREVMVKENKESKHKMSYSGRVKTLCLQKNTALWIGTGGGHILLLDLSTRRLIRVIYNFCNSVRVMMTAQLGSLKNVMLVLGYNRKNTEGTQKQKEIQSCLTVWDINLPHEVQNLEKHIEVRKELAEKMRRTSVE
Details: not given
On the technique in general: TR-FRET usually uses a lanthanide donor and a delayed reading to cut background.
For `O=C(Nc1cc2cc(C3CCN([C@@H]4COC[C@@H]4O)CC3)c(Cl)cc2cn1)C1CC12CCOC2` (single isomer, unassigned) [Ex-8.1, N-(7-chloro-6-(1-((3R,4R or 3S,4S)-4-hydroxytetrahydrofuran-3-yl)piperidin-4-yl)isoquinolin-3-yl)-5-oxaspiro[2.4]heptane-1-carboxamide], the “LRRK2 pIC50” value stood at 10.0.

Still in this assay, the particulars now being: read-out: LRRK2 pIC50 (converted).
With `CC1(N2CCC(c3cc4cc(NC(=O)C5CC56CCOCC6)ncc4cc3F)CC2)COCC1O` (single isomer, unassigned) [Ex-8.3, N-(7-fluoro-6-(1-(4-hydroxy-3-methyltetrahydrofuran-3-yl)piperidin-4-yl)isoquinolin-3-yl)-6-oxaspiro[2.5]octane-1-carboxamide], the IC50 is 0.195 nM. For the compound `CC1(N2CCC(c3cc4cc(NC(=O)C5CC5c5ccccn5)ncc4cc3F)CC2)COCC1O` (single isomer, unassigned) [Ex-8.4, N-(7-fluoro-6-(1-(4-hydroxy-3-methyltetrahydrofuran-3-yl)piperidin-4-yl)isoquinolin-3-yl)-2-(pyridin-2-yl)cyclopropane-1-carboxamide], the IC50 was 0.0813 nM. In the case of `O=C(Nc1cc2cc(C3CCN(C4COCC4O)CC3)c(Cl)cc2cn1)C1CC12CCOC2` (single isomer, unassigned) [Ex-8.5, N-(7-chloro-6-(1-(4-hydroxytetrahydrofuran-3-yl)piperidin-4-yl)isoquinolin-3-yl)-5-oxaspiro[2.4]heptane-1-carboxamide], the IC50 is 0.1 nM. On the same count and under the same terms, the figure for `O=C(Nc1cc2cc(C3CCN(C4COC4)CC3)c(Cl)cc2cn1)C1CC12CC2` (single isomer, unassigned) [Ex-9.2] is 1.45 nM; for `CC1CC1C(=O)Nc1cc2cc(C3CCN(C4COC4)CC3)c(Cl)cc2cn1` (single isomer, unassigned) [Ex-9.3, N-(7-chloro-6-(1-(oxetan-3-yl)piperidin-4-yl)isoquinolin-3-yl)-2-methylcyclopropane-1-carboxamide] it is 0.631 nM. For the compound `CC1CC1C(=O)Nc1cc2cc(C3CCN(C4COC4)CC3)c(Cl)cc2cn1` (single isomer, unassigned) [Ex-9.4, N-(7-chloro-6-(1-(oxetan-3-yl)piperidin-4-yl)isoquinolin-3-yl)-2-methylcyclopropane-1-carboxamide], the IC50 is 5.75 nM. Turning to `CC1CC1C(=O)Nc1cc2cc(C3CCN(C4COC4)CC3)c(Cl)cc2cn1` (single isomer, unassigned) [Ex-9.5, N-(7-chloro-6-(1-(oxetan-3-yl)piperidin-4-yl)isoquinolin-3-yl)-2-methylcyclopropane-1-carboxamide], the IC50 was 1.1 nM. In the case of `CC1CC1C(=O)Nc1cc2cc(C3CCN(C4COC4)CC3)c(Cl)cc2cn1` (single isomer, unassigned) [Ex-9.6, N-(7-chloro-6-(1-(oxetan-3-yl)piperidin-4-yl)isoquinolin-3-yl)-2-methylcyclopropane-1-carboxamide], the IC50 was 8.91 nM. On to `O=C(Nc1cc2cc(C3CCN(C4COC4)CC3)c(Cl)cc2cn1)C1CC12CCOCC2` (single isomer, unassigned) [Ex-9.7, N-(7-chloro-6-(1-(oxetan-3-yl)piperidin-4-yl)isoquinolin-3-yl)-6-oxaspiro[2.5]octane-1-carboxamide], for which the IC50 is 1.95 nM. On to `O=C(Nc1cc2cc(C3CCN(C4COC4)CC3)c(Cl)cc2cn1)C1CC12CCOCC2` (single isomer, unassigned) [Ex-9.8, N-(7-chloro-6-(1-(oxetan-3-yl)piperidin-4-yl)isoquinolin-3-yl)-6-oxaspiro[2.5]octane-1-carboxamide], for which the IC50 is 19.1 nM. As for `CC1OCCC1N1CCC(c2cc3cc(NC(=O)C4CC4)ncc3cc2Cl)CC1` (single isomer, unassigned) [Ex-9.9, N-(7-chloro-6-(1-(2-methyltetrahydrofuran-3-yl)piperidin-4-yl)isoquinolin-3-yl)cyclopropanecarboxamide], the IC50 is 5.62 nM. For `CC1OCCC1N1CCC(c2cc3cc(NC(=O)C4CC4)ncc3cc2Cl)CC1` (single isomer, unassigned) [Ex-9.10, N-(7-chloro-6-(1-(2-methyltetrahydrofuran-3-yl)piperidin-4-yl)isoquinolin-3-yl)cyclopropanecarboxamide], the IC50 was 38.9 nM. `COCC(C)c1cc2cc(NC(=O)C3CC34CCOCC4)ncc2cc1Cl` (single isomer, unassigned) [Ex-9.11, N-(7-chloro-6-(1-methoxypropan-2-yl)isoquinolin-3-yl)-6-oxaspiro[2.5]octane-1-carboxamide]: the IC50 was 44.7 nM.

Regarding `COCC(C)c1cc2cc(NC(=O)C3CC34CCOCC4)ncc2cc1Cl` (single isomer, unassigned) [Ex-9.12, N-(7-chloro-6-(1-methoxypropan-2-yl)isoquinolin-3-yl)-6-oxaspiro[2.5]octane-1-carboxamide], the IC50 is 35.5 nM. With `CCC1C(C(=O)Nc2cc3cc(C(C)COC)c(Cl)cc3cn2)C1c1cnn(C)c1` (single isomer, unassigned) [Ex-9.13, N-(7-chloro-6-(1-methoxypropan-2-yl)isoquinolin-3-yl)-2-ethyl-3-(1-methyl-1H-pyrazol-4-yl)cyclopropane-1-carboxamide], the IC50 was 6.92 nM. Turning to `CCC1C(C(=O)Nc2cc3cc(C(C)COC)c(Cl)cc3cn2)C1c1cnn(C)c1` (single isomer, unassigned) [Ex-9.14, N-(7-chloro-6-(1-methoxypropan-2-yl)isoquinolin-3-yl)-2-ethyl-3-(1-methyl-1H-pyrazol-4-yl)cyclopropane-1-carboxamide], the IC50 is 1.17 nM. As to `CCC1C(C(=O)Nc2cc3cc(C(C)CC#N)c(Cl)cc3cn2)C1c1cnn(C)c1` (single isomer, unassigned) [Ex-9.15, N-(7-chloro-6-(1-cyanopropan-2-yl)isoquinolin-3-yl)-2-ethyl-3-(1-methyl-1H-pyrazol-4-yl)cyclopropane-1-carboxamide], the IC50 was 0.427 nM.

`CCC1C(C(=O)Nc2cc3cc(C(C)CC#N)c(Cl)cc3cn2)C1c1cnn(C)c1` (single isomer, unassigned) [Ex-9.16, N-(7-chloro-6-(1-cyanopropan-2-yl)isoquinolin-3-yl)-2-ethyl-3-(1-methyl-1H-pyrazol-4-yl)cyclopropane-1-carboxamide]: the IC50 is 1.82 nM. On the same count and under the same terms, under `COCC(C)c1cc2cc(NC(=O)C3CC3c3ccccn3)ncc2cc1Cl` (single isomer, unassigned) [Ex-9.19, N-(7-chloro-6-(1-methoxypropan-2-yl)isoquinolin-3-yl)-2-(pyridin-2-yl)cyclopropane-1-carboxamide] stands 11 nM; under `COCC(C)c1cc2cc(NC(=O)C3CC3c3ccccn3)ncc2cc1Cl` (single isomer, unassigned) [Ex-9.20, N-(7-chloro-6-(1-methoxypropan-2-yl)isoquinolin-3-yl)-2-(pyridin-2-yl)cyclopropane-1-carboxamide], 29.5 nM. As for `CC(CC#N)c1cc2cc(NC(=O)C3CC3c3ccccn3)ncc2cc1Cl` (single isomer, unassigned) [Ex-9.21, N-(7-chloro-6-(1-cyanopropan-2-yl)isoquinolin-3-yl)-2-(pyridin-2-yl)cyclopropane-1-carboxamide], the IC50 was 26.3 nM.

With `CC(CC#N)c1cc2cc(NC(=O)C3CC3c3ccccn3)ncc2cc1Cl` (single isomer, unassigned) [Ex-9.22, N-(7-chloro-6-(1-cyanopropan-2-yl)isoquinolin-3-yl)-2-(pyridin-2-yl)cyclopropane-1-carboxamide], the IC50 is 129 nM. The same measure, in the same setting: under `O=C(Nc1cc2cc(C3C4CCOCC43)c(Cl)cc2cn1)C1CC12CCOCC2` (single isomer, unassigned) [Ex-9.23, N-(6-(3-oxabicyclo[4.1.0]heptan-7-yl)-7-chloroisoquinolin-3-yl)-6-oxaspiro[2.5]octane-1-carboxamide] stands 19.1 nM; under `O=C(Nc1cc2cc(C3C4CCOCC43)c(Cl)cc2cn1)C1CC12CCOCC2` (single isomer, unassigned) [Ex-9.24, N-(6-(3-oxabicyclo[4.1.0]heptan-7-yl)-7-chloroisoquinolin-3-yl)-6-oxaspiro[2.5]octane-1-carboxamide], 6.61 nM. Same read-out and setting: under `COC1CCC(C(=O)Nc2cc3cc(C4CCN(C5(C)COCC5O)CC4)c(Cl)cc3cn2)CC1` (single isomer, unassigned) [Ex-10.1, 1,4-trans, (3R,4R)- or 1,4-trans, (3S,4S)- or 1,4-cis, (3R,4R)- or 1,4-cis, (3S,4S)-N-(7-chloro-6-(1-(4-hydroxy-3-methyltetrahydrofuran-3-yl)piperidin-4-yl)isoquinolin-3-yl)-4-methoxycyclohexane-1-carboxamide] stands 10.5 nM; under `COC1CCC(C(=O)Nc2cc3cc(C4CCN(C5(C)COCC5O)CC4)c(Cl)cc3cn2)CC1` (single isomer, unassigned) [Ex-10.2, 1,4-trans, (3R,4R)- or 1,4-trans, (3S,4S)- or 1,4-cis, (3R,4R)- or 1,4-cis, (3S,4S)-N-(7-chloro-6-(1-(4-hydroxy-3-methyltetrahydrofuran-3-yl)piperidin-4-yl)isoquinolin-3-yl)-4-methoxycyclohexane-1-carboxamide], 46.8 nM; under `CC1C(C(=O)Nc2cc3cc(C4CCN(C5(C)COCC5O)CC4)c(Cl)cc3cn2)C12CCOCC2` (single isomer, unassigned) [Ex-10.5, N-(7-chloro-6-(1-(4-hydroxy-3-methyltetrahydrofuran-3-yl)piperidin-4-yl)isoquinolin-3-yl)-2-methyl-6-oxaspiro[2.5]octane-1-carboxamide], 61.7 nM. Take `CC1C(C(=O)Nc2cc3cc(C4CCN(C5(C)COCC5O)CC4)c(Cl)cc3cn2)C12CCOCC2` (single isomer, unassigned) [Ex-10.6, N-(7-chloro-6-(1-(4-hydroxy-3-methyltetrahydrofuran-3-yl)piperidin-4-yl)isoquinolin-3-yl)-2-methyl-6-oxaspiro[2.5]octane-1-carboxamide]: the IC50 is 11 nM.
